The text below walks through data of US11344601B2, “Tumor microenvironment-related target TAK1 and application thereof in inhibition of tumor” (Shanghai Institutes for Biological Sciences, Chinese …, priority 2017, dated 2022).

The assay relates to SASP effectors. The experiment in a line: Genome-wide expression microarray of SASP effectors in PSC27 cells. It is filed as cell-based, human. Particulars: bleomycin in combination with 5Z-7 vs bleomycin alone. As for the experimental part:
FIG. 34. After simultaneous treatment of PSC27 cells with bleomycin and/or 5Z-7, SB203580 (SB) and RAD001, total RNA was analyzed by microarray for expression-spectrum.
c. Experimental Treatment In Vitro • 100 nM docetaxel (DTX), 100 nM paclitaxel (PTX), 200 nM vincristine (VCR), 50 μg/ml bleomycin (BLEO), 1 μM mitoxantrone (MIT), or 10 Gy ^137CS ionizating radiation (γ-radiation at 743 rad/min, RAD) was added to the culture medium when PSC27 cells grown to 80% (PSC27-Pre) to produce cell damage. After drug treatment for 6 hours, the cells were simply washed by PBS for 3 times and kept in the culture medium for 7 to 10 days, followed by subsequent experiments. 2. Plasmid Preparation and Lentiviral Transfection • Full-length human IKKα and Flag were cloned as a fusion protein between the restriction sites BamHI and XbaI in the expression vector pCR3.1. Full-length human mTOR and GST were cloned as a fusion protein between a pair of NotI restriction sites in the expression vector pcDNA3. […] FV1000 laser scanning confocal microscopy (Olympus) was used to obtain cellular confocal fluorescence images to determine the extent of DNA damage. • Antibody anti-TAK1 used for histological IHC staining in clinical prostate, non-small cell lung cancer patients and breast cancer patients, was purchased from Proteintech, idib. […]

In the case of `COc1cc(O)c2c(c1)/C=C/C[C@H](O)[C@H](O)C(=O)/C=C\C[C@H](C)OC2=O` [5Z-7, 5z-7-oxozeaenol], the “expression of SASP effectors” value is given as “significantly inhibited”.
